The values that follow come from ChEMBL document CHEMBL4007384, “Synthesis and optimization of furano[3,2-d]pyrimidines as selective spleen tyrosine kinase (Syk) inhibitors” (Bioorg Med Chem Lett, 2016).

Values after ≈ are worked out from the molar mass of the structure shown.

A short description of data set [1]: Unbound clearance in rat microsomes. It is filed as ADME, Microsome.
Data set [2] in a line: Unbound clearance in human microsomes. The class given is ADME, Microsome.
The target in data set [3] is T1, CYP3A4 (Homo sapiens, UniProt P08684). In words: Inhibition of CYP3A4 in human liver microsomes assessed as residual activity at 10 uM measured after 30 mins relative to control. The class given is ADME. As to conditions: read-out: Activity; call rule not given here. Background: Liver microsomes are vesicles of endoplasmic reticulum, rich in cytochrome P450 enzymes.
Data set [4] deals with T1, CYP3A4. The data set is described as follows: Inhibition of CYP3A4 in human liver microsomes assessed as residual activity at 50 uM measured immediately relative to control. The class given is ADME. As to conditions: read-out: Activity.
Data set [5] can be described thus: Solubility in pH 5 FeSSIF at 0.2 mg sonicated for 10 mins followed by incubation for 2 days by HPLC analysis. It is filed as physicochemical.
For data set [6], the target named is T1, CYP3A4. In words: Inhibition of CYP3A4 in human liver microsomes assessed as residual activity at 50 uM measured after 30 mins relative to control. It is filed as ADME. As to conditions: read-out: Activity.
In data set [7] the target is T1, CYP3A4. In words: Inhibition of CYP3A4 in human liver microsomes assessed as residual activity at 10 uM measured immediately relative to control. The class given is ADME. As to conditions: read-out: Activity.
A further data set concerns the target Cytochrome P450 3A4 (Homo sapiens, UniProt P08684). In words: Time-dependent inhibition of CYP3A4 in human liver microsomes at 10 to 50 uM. It is filed as ADME.
The next data set deals with Rattus norvegicus. In words: Antiarthritic activity in rat model of collagen-induced arthritis assessed as inhibition of paw swelling at 3 mg/kg, bid for 8 days relative to control. The class given is functional. The settings on record: 192 h.

T1 sequence (P08684 whole entry): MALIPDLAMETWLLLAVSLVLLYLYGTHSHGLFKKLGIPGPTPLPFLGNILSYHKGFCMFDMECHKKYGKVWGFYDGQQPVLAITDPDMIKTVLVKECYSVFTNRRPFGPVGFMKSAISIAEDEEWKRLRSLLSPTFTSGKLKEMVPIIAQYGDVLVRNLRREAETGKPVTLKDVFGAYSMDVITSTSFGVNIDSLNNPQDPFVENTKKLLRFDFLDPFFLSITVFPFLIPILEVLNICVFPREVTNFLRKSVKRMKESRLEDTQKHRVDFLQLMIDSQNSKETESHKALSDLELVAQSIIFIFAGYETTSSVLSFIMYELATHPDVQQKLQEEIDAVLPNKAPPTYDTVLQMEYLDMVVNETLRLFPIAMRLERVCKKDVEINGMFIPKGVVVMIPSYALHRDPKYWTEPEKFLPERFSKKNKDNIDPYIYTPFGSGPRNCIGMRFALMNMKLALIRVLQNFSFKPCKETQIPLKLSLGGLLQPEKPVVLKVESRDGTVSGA
Chain of Cytochrome P450 3A4 (P08684 whole entry): as above

Turning to `CC1(C)Oc2ccc(Nc3nc(NCC(F)(F)F)c4occc4n3)cc2NC1=O`, the CL free in data set [1] was 177 mL/min/kg.
For `CC(C)CNc1nc(Nc2ccc3c(c2)NC(=O)COC3(C)C)nc2ccoc12`, the CL free in data set [1] amounted to 1080 mL/min/kg; in data set [2], 507 mL/min/kg.
For `COC(=O)N[C@H]1CC(C)(C)c2ccc(Nc3nc(NC4CC4)c4occc4n3)cc2NC1=O` the same measures were 332 mL/min/kg and 118 mL/min/kg.
Compound `CC1(C)CCC(=O)Nc2cc(Nc3nc(NCC(F)(F)F)c4occc4n3)ccc21` yielded a CL free in data set [1] of 880 mL/min/kg.
On to `CC1(C)OCC(=O)Nc2cc(Nc3nc(NC4CC4)c4occc4n3)ccc21`, for which the activity at 0.5 h, 10 µM on CYP3A4 [3] was 56%. The activity at 0 min, 50 µM at CYP3A4 [4] turned out to be 80%. In addition, the results for the CL free in data set [1] and in data set [2] were 200 mL/min/kg and 120 mL/min/kg, respectively. The same compound came in with a solubility at 48 h in data set [5] of 158 µM (≈ 59.9 µg/mL). Besides, the activity at 0.5 h, 50 µM on CYP3A4 [6] came out at 14%. At CYP3A4 [7], the activity at 0 min, 10 µM was 97%. In addition, the TDI entry at Cytochrome P450 3A4 is “Active”.
For `C[C@]12C=CC(=O)C=C1CC[C@@H]1[C@@H]2[C@@H](O)C[C@@]2(C)[C@H]1CC[C@]2(O)C(=O)CO` [PREDNISOLONE], the inhibition in vivo at 3 mg/kg in the data set with Rattus norvegicus turned out to be 86%.
For `COC(=O)N[C@@H]1CC(C)(C)c2ccc(Nc3nc(NC4CC4)c4occc4n3)cc2NC1=O`, the CL free worked out at 182 mL/min/kg in [1] and 123 mL/min/kg in [2]. The compound further registered a solubility at 48 h in [5] of 27 µM (≈ 12.2 µg/mL).

Broadly, the solubility is how much of the substance goes into solution per volume. The low end stands for little dissolved substance, the high end for much dissolved substance. One may read the inhibition in vivo as the change of the read-out against control, counted positive when it falls.
